For assay [1], the system named is Acinetobacter baumannii (4 strains). Put plainly: MIC, broth microdilution, iron-deficient MH medium. Format: cell-based. To be noted: Acinetobacter baumannii; iron-deficient MH medium (16 mg/L 2,2'-bipyridine); multidrug-resistant clinical isolates (integron I, OXA23); read-out: Antibacterial activity MIC, Acinetobacter baumannii (4 strains). Here is the method:
(§1) Supplier of the strains: all of the above strains were provided by Sichuan Primed Shines Bio-tech Co., Ltd. A single colony was isolated by streaking on agar plates for each strain prior to the experiment, and the cells freshly cultured at 37° C. overnight were appropriately diluted for the experiment.
(§2) Medium: MH liquid medium (OXOID).
(§3) Culture condition: cells were incubated at 35-37° C. for 16-18 h.
(§4) The broth microdilution method recommended by Clinical and Laboratory Standards Institute (CLSI), Performance Standards for Antimicrobial Susceptibility Testing; Twenty-Third Informational Supplement, M02-All, M07-A9 and M11-A8, 2013 was used to determine the MIC value of each test sample against each test strain in the normal MH medium and iron-deficient MH medium.
(§5) BPL was added to the normal MH medium to obtain a final concentration of 16 mg/L; According to the method in Section 1.2.1, 100 μl of each test sample solution at different concentrations was aspirated to the 1st to 10th well in a 96-well sterile polystyrene plate to obtain the final drug concentrations of 16, 8, 4, 2, 1, 0.5, 0.25, 0.125, 0.06, and 0.03 mg/L, respectively. Then, 100 μl of the test bacterial liquid was added to each well (200 μl per well), and the final concentration of the bacterial liquid was approximately 10^4 CFU/ml. After sealing, it was placed in a 35-37° C. incubator for 18-20 hours for testing the result. The OD600 value was measured by a microplate reader, Minimal Inhibitory Concentration (MIC) of a drug is the lowest concentration of the drug which prevents growth of bacteria in the wells.
Background: In broth dilution the organism is exposed to a series of concentrations in liquid medium.

Assay [2] deals with Escherichia coli (4 strains). Put plainly: MIC, broth microdilution, iron-deficient MH medium. Format: cell-based. To be noted: Escherichia coli; iron-deficient MH medium (16 mg/L 2,2'-bipyridine); clinical isolates (ESBLs); read-out: Antibacterial activity MIC, Escherichia coli (4 strains). On the procedure:
as §1, §2, §3, §4, §5

The subject of assay [3] is Klebsiella pneumoniae (4 strains). Put plainly: MIC, broth microdilution, iron-deficient MH medium. It is filed as cell-based. Here is the method: as §1, §2, §3, §4, §5
The subject of assay [4] is Pseudomonas aeruginosa (4 strains). Put plainly: MIC, broth microdilution, iron-deficient MH medium. It is filed as cell-based. To be noted: Pseudomonas aeruginosa; iron-deficient MH medium (16 mg/L 2,2'-bipyridine); multidrug-resistant clinical isolates (integrator I, IMP4); read-out: Antibacterial activity MIC, Pseudomonas aeruginosa (4 strains). Here is the method:
as §1, §2, §3, §4, §5

The subject of assay [5] is Escherichia coli ECO-14-4 (ESBLs). Put plainly: In vivo efficacy in mice systemically infected with Escherichia coli ECO-14-4 (ESBLs). To be noted: Escherichia coli; Kunming mice, intraperitoneal infection, drug s.c. 0.5 h and 4 h after infection, deaths over 7 days, Bliss method; read-out: ED50 Subcutaneous injection. On the procedure:
3.1 Test strains: Clinically isolated pathogenic Escherichia coli ECO-14-4 (ESBLs), supplied by Sichuan Primed Shines Bio-tech Co., Ltd.
3.2 Test animals: Kunming mice, age: 4 to 5 weeks, weight: 18 to 22 g, half male, half female, SPF grade.
3.3 Test methods: Mice were randomly divided into several groups, 5 mice for each group, half male and half female, and 5 doses for each test drug: 1.25, 2.5, 5, 10 and 20 mg/kg. The mice were intraperitoneally injected with 0.5 mL of […] CFU/mL bacterial suspension for each mouse, and subcutaneously injected with the drug at the designed dose 0.5 h and 4 h after infection. The subcutaneous injection volume was 0.2 ml/20 g mouse weight; the number of deaths in mice was observed and recorded for 7 consecutive days. According to the number of deaths in mice, the half effective dose ED50 was calculated according to the Bliss method using the DAS 1.0 software, edited by Sun Ruiyuan et al.

Where a name gives a salt, the structure may show the parent alone.

Regarding `CC(C)C(O/N=C(\C(=O)N[C@@H]1C(=O)N(OS(=O)(=O)O)C1(C)C)c1csc(N)n1)c1cc(=O)c(O)cn1O` (stereo partly drawn) [Compound 12, (3S)-3-((Z)-2-(2-aminothiazol-4-yl)-2-((1-(1,5-dihydroxy-4-oxo-1,4-dihydropyridin-2-yl)methylisopropyloxy)imine)acetamido)-2,2-dimethyl-4-oxoazetidine-1-hydrogen sulfate], the MIC – broadly, the smallest concentration in the dilution series that meets the test's criterion for growth inhibition – in assay [1] was 0.5 to 1 mg/L; in assay [2] it was 0.03 to 0.25 mg/L; in assay [3] (Klebsiella pneumoniae, iron-deficient MH medium (16 mg/L 2,2'-bipyridine), multi-drug resistant clinical isolates (KPC2), read-out: Antibacterial activity MIC, Klebsiella pneumoniae (4 strains)), 0.25 to 0.5 mg/L; in assay [4], 0.25 to 1 mg/L. In addition, the “times more effective than BAL30072 in inhibitory activity against Klebsiella pneumonia” value in assay [3] (iron-deficient MH medium, from MIC of Table 3) is reported as 128-256 times. Further, the ED50 (in general, the dose that gives a 50% effect, or the effect in half of the subjects) in assay [5] was found to be 3.37 mg/kg.
